Measured values as given in PubChem BioAssay AID1963826 (Molecular Pharmacology Branch, DTP, NCI, 2024).
pIC50: −log10 of the molar value.

Tested on: 926638-142-R-J1-PDC complex spheroid viability
Assay: Anticancer human tumor 926638-142-R-J1-PDC patient-derived endometrial carcinoma cell line growth inhibition [POLQ]
Details: for pIC50: curve of first compound; for viability, T/C: stronger effect = lower value
How it was run: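 Complex spheroid viability model combining PDC tumour cells with endothelial (HUVEC) and MSC stromal cells. Novobiocin, ART-558 or RP6685 were tested singly and in combination with standard and investigational anticancer drugs. Each was titrated in half-log steps from near clinical Cmax, or from 10 microM where Cmax was unknown.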

[1] = second compound 0.0316 µM, first compound 0.0316 µM
[2] = second compound 0.0316 µM, first compound 0.1 µM
[3] = second compound 0.0316 µM, first compound 0.316 µM
[4] = second compound 0.0316 µM, first compound 1 µM
[5] = second compound 0.0316 µM, first compound 3.16 µM
[6] = second compound 0.0316 µM, first compound 10 µM
[7] = second compound 0.1 µM, first compound 0.0316 µM
[8] = second compound 0.1 µM, first compound 0.1 µM
[9] = second compound 0.1 µM, first compound 0.316 µM
[10] = second compound 0.1 µM, first compound 1 µM
[11] = second compound 0.1 µM, first compound 3.16 µM
[12] = second compound 0.1 µM, first compound 10 µM
[13] = second compound 0.316 µM, first compound 0.0316 µM
[14] = second compound 0.316 µM, first compound 0.1 µM
[15] = second compound 0.316 µM, first compound 0.316 µM
[16] = second compound 0.316 µM, first compound 1 µM
[17] = second compound 0.316 µM, first compound 3.16 µM
[18] = second compound 0.316 µM, first compound 10 µM
[19] = second compound 1 µM, first compound 0.0316 µM
[20] = second compound 1 µM, first compound 0.1 µM
[21] = second compound 1 µM, first compound 0.316 µM
[22] = second compound 1 µM, first compound 1 µM
[23] = second compound 1 µM, first compound 3.16 µM
[24] = second compound 1 µM, first compound 10 µM
[25] = second compound 3.16 µM, first compound 0.0316 µM
[26] = second compound 3.16 µM, first compound 0.1 µM
[27] = second compound 3.16 µM, first compound 0.316 µM
[28] = second compound 3.16 µM, first compound 1 µM
[29] = second compound 3.16 µM, first compound 3.16 µM
[30] = second compound 3.16 µM, first compound 10 µM
[31] = second compound 10 µM, first compound 0.0316 µM
[32] = second compound 10 µM, first compound 0.1 µM
[33] = second compound 10 µM, first compound 0.316 µM
[34] = second compound 10 µM, first compound 1 µM
[35] = second compound 10 µM, first compound 3.16 µM
[36] = second compound 10 µM, first compound 10 µM
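Further: spheroids exposed to drugs for one week before readout.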
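Wherever viability, T/C is given: percent viability relative to DMSO vehicle control wells set as 100%.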

Nc1ccn(C2OC(CO)C(O)C2(F)F)c(=O)n1 (stereo unspecified) + Cc1cccc(N(C)C(=O)C2C(O)CCN2c2nc(C)cc(C(F)(F)F)c2C#N)c1
pIC50 (second compound 0.0316 µM): 5.89
pIC50 (second compound 0.1 µM): 5.76
pIC50 (second compound 0.316 µM): 6.07
pIC50 (second compound 1 µM): 6.20
pIC50 (second compound 3.16 µM): 6.09
pIC50 (second compound 10 µM): 6.27
viability, T/C [1]: 88.1%
viability, T/C [2]: 66.7%
viability, T/C [3]: 54.9%
viability, T/C [4]: 62.1%
viability, T/C [5]: 44.8%
viability, T/C [6]: 20.9%
viability, T/C [7]: 81.3%
viability, T/C [8]: 68.9%
viability, T/C [9]: 57.9%
viability, T/C [10]: 62.2%
viability, T/C [11]: 46%
viability, T/C [12]: 22.8%
viability, T/C [13]: 97.1%
viability, T/C [14]: 64.6%
viability, T/C [15]: 60.8%
viability, T/C [16]: 51.4%
viability, T/C [17]: 43.7%
viability, T/C [18]: 26.2%
viability, T/C [19]: 80.8%
viability, T/C [20]: 62.1%
viability, T/C [21]: 53.8%
viability, T/C [22]: 46.5%
viability, T/C [23]: 44.2%
viability, T/C [24]: 22.4%
viability, T/C [25]: 89.4%
viability, T/C [26]: 63.6%
viability, T/C [27]: 48.5%
viability, T/C [28]: 60.4%
viability, T/C [29]: 45.1%
viability, T/C [30]: 28%
viability, T/C [31]: 85.1%
viability, T/C [32]: 70.5%
viability, T/C [33]: 52%
viability, T/C [34]: 44.5%
viability, T/C [35]: 41.4%
viability, T/C [36]: 32.5%

O=C(Nc1ccc(O)c(NS(=O)(=O)c2ccc(F)cc2)c1)c1ccc(-c2ccccc2)cc1 + Cc1cccc(N(C)C(=O)C2C(O)CCN2c2nc(C)cc(C(F)(F)F)c2C#N)c1
pIC50 (second compound 0.0316 µM): < 5.00
pIC50 (second compound 0.1 µM): < 5.00
pIC50 (second compound 0.316 µM): < 5.00
pIC50 (second compound 1 µM): < 5.00
pIC50 (second compound 3.16 µM): < 5.00
pIC50 (second compound 10 µM): < 5.00
viability, T/C [1]: 93.9%
viability, T/C [2]: 93.2%
viability, T/C [3]: 91.6%
viability, T/C [4]: 91%
viability, T/C [5]: 90.5%
viability, T/C [6]: 62.5%
viability, T/C [7]: 104%
viability, T/C [8]: 78.6%
viability, T/C [9]: 81.2%
viability, T/C [10]: 94%
viability, T/C [11]: 90.1%
viability, T/C [12]: 62.5%
viability, T/C [13]: 94.3%
viability, T/C [14]: 105%
viability, T/C [15]: 86.6%
viability, T/C [16]: 87.8%
viability, T/C [17]: 94.5%
viability, T/C [18]: 67.2%
viability, T/C [19]: 90.3%
viability, T/C [20]: 94.8%
viability, T/C [21]: 88.1%
viability, T/C [22]: 96.9%
viability, T/C [23]: 85.6%
viability, T/C [24]: 73.1%
viability, T/C [25]: 79.6%
viability, T/C [26]: 91.5%
viability, T/C [27]: 82.1%
viability, T/C [28]: 97.6%
viability, T/C [29]: 95.7%
viability, T/C [30]: 68.5%
viability, T/C [31]: 79.1%
viability, T/C [32]: 75.8%
viability, T/C [33]: 74.6%
viability, T/C [34]: 78.7%
viability, T/C [35]: 80.7%
viability, T/C [36]: 55.7%

C=CC(=O)N1CCN(c2nc(=O)n(-c3c(C)ccnc3C(C)C)c3nc(-c4c(O)cccc4F)c(F)cc23)C(C)C1 (stereo unspecified) + Cc1cccc(N(C)C(=O)C2C(O)CCN2c2nc(C)cc(C(F)(F)F)c2C#N)c1
pIC50 (second compound 0.0316 µM): < 5.00
pIC50 (second compound 0.1 µM): < 5.00
pIC50 (second compound 0.316 µM): < 5.00
pIC50 (second compound 1 µM): < 5.00
pIC50 (second compound 3.16 µM): 5.18
pIC50 (second compound 10 µM): < 5.00
viability, T/C [1]: 84.5%
viability, T/C [2]: 78%
viability, T/C [3]: 67.2%
viability, T/C [4]: 76.1%
viability, T/C [5]: 66%
viability, T/C [6]: 59.1%
viability, T/C [7]: 82.8%
viability, T/C [8]: 78.7%
viability, T/C [9]: 94%
viability, T/C [10]: 76.6%
viability, T/C [11]: 70.8%
viability, T/C [12]: 65.5%
viability, T/C [13]: 97.4%
viability, T/C [14]: 90.3%
viability, T/C [15]: 91.5%
viability, T/C [16]: 74.2%
viability, T/C [17]: 70%
viability, T/C [18]: 55.6%
viability, T/C [19]: 74.8%
viability, T/C [20]: 84.7%
viability, T/C [21]: 79.2%
viability, T/C [22]: 69.9%
viability, T/C [23]: 72.7%
viability, T/C [24]: 49.6%
viability, T/C [25]: 91.8%
viability, T/C [26]: 82.7%
viability, T/C [27]: 84.7%
viability, T/C [28]: 86%
viability, T/C [29]: 74.1%
viability, T/C [30]: 36.1%
viability, T/C [31]: 90.7%
viability, T/C [32]: 80.8%
viability, T/C [33]: 94.9%
viability, T/C [34]: 77%
viability, T/C [35]: 78%
viability, T/C [36]: 52.9%
